Earlier results as cited in patent publication US20230314440A1, “METHOD OF TREATING CANCER” (priority 2020, published 2023).

System: metastatic renal cell carcinoma (RCC)
Conditions: patients with metastatic RCC; ESMO 2018, Presentation No. 882P

SMILES: COc1cc2nccc(Oc3ccc(NC(=O)C4(C(=O)Nc5ccc(F)cc5)CC4)cc3)c2cc1OC [cabozantinib, N-(4-{[6,7-bis(methyloxy)quinolin-4-yl]oxy}phenyl)-N′-(4-fluorophenyl)cyclopropane-1,1-dicarboxamide]
- effect on systemic tumor immunity: has an impact on systemic tumor immunity
